Assay results reported in patent US11884649B2, “IRE1α inhibitors and uses thereof” (The Regents of the University of California, priority 2020, dated 2024).
Entries after “also recorded” stand apart in the source; their conditions may differ.

Legend:
IRE1α* [1] = biological target: T1, IRE1α* (Homo sapiens, UniProt O75460); experiment: In vitro Kdimer assay (dimerization affinity from RNase activity); assay type: biochemical; conditions: 50 μM inhibitor
T1 construct: human IRE1α (residues 547-977, IRE1α*) was expressed in SF9 insect cells; His6 (N); made in house; host or cells: Sf9 insect cells (Bac-to-Bac baculovirus)
Source text: In order to better understand how to achieve an optimal intermediate RNase activation state through engagement of IRE1α's kinase domain, we first established a quantitative in vitro framework for characterizing how ATP-binding site occupancy influences RNase activity. […] This dimeric state-commonly referred to as the “back-to-back” dimer—is characterized by an extensive interface between the kinase and RNase domains of each IRE1α protomer; this dimeric state can be promoted through mass action as IRE1α concentration is raised. […] Furthermore, ligands that occupy the ATP-binding site of the kinase domain can also stimulate IRE1α's RNase activity by promoting dimer formation. We measured the ability of a purified, recombinant kinase/RNase domain construct of IRE1α—called IRE1α*—to cleave a FRET-quenched XBP1 RNA mini-substrate as a function of IRE1α* concentration, in order to provide a quantitative metric of IRE1α's dimer affinity (Kdimer) (FIG. 1B).
IRE1α* or dPIRE1α* was titrated from either 2 μM or 4 μM in two-fold serial dilutions in assay buffer (20 mM Tris, 50 mM sodium chloride, 1 mM MgCl2, 2 mM DTT, 0.05% Triton X-100 (v/v), pH 7.5) and incubated with 50 μM inhibitor for 30 minutes at room temperature. Assays were initiated by adding 10 μL of XBP1-mini substrate (5′-Alex647-CAUGUCCGCAGCGCAUG-IowaBlack-FQ-3′ (SEQ ID NO:1); IDT) to the wells at a final concentration of 6 μM and a final well volume of 30 μL. Fluorescence was detected on a Perkin Elmer Envision Microplate Reader at excitation and emission wavelengths of 650 nm and 665 nm. Reaction process was monitored real time in 10-second intervals for at least 30 minutes. Initial rates of XBP1-cleavage were determined for each respective IRE1α* of dpIRE1α* concentration. Specific activity was then determined by dividing rate (RFU/s) by the respective IRE1α* of dpIRE1α* used (RFU/s*[IRE1α]). Kdimer values were determined by fitting these values using the non-linear regression ‘one-site total’ binding parameter in GraphPad Prism analysis software.

dpIRE1α* = biological target: T2, dpIRE1α* (Homo sapiens, UniProt O75460); experiment: In vitro Kdimer assay with dephosphorylated construct; assay type: biochemical; conditions: 50 μM inhibitor
T2 construct: human IRE1α (residues 547-977, IRE1α*) was expressed in SF9 insect cells; His6 (N); made in house; host or cells: Sf9 insect cells, then λ-PPase treatment
Source text: In order to better understand how to achieve an optimal intermediate RNase activation state through engagement of IRE1α's kinase domain, we first established a quantitative in vitro framework for characterizing how ATP-binding site occupancy influences RNase activity. […] This dimeric state-commonly referred to as the “back-to-back” dimer—is characterized by an extensive interface between the kinase and RNase domains of each IRE1α protomer; this dimeric state can be promoted through mass action as IRE1α concentration is raised. […] Furthermore, ligands that occupy the ATP-binding site of the kinase domain can also stimulate IRE1α's RNase activity by promoting dimer formation. We measured the ability of a purified, recombinant kinase/RNase domain construct of IRE1α—called IRE1α*—to cleave a FRET-quenched XBP1 RNA mini-substrate as a function of IRE1α* concentration, in order to provide a quantitative metric of IRE1α's dimer affinity (Kdimer) (FIG. 1B). […]
IRE1α* or dPIRE1α* was titrated from either 2 μM or 4 μM in two-fold serial dilutions in assay buffer (20 mM Tris, 50 mM sodium chloride, 1 mM MgCl2, 2 mM DTT, 0.05% Triton X-100 (v/v), pH 7.5) and incubated with 50 μM inhibitor for 30 minutes at room temperature. […] Fluorescence was detected on a Perkin Elmer Envision Microplate Reader at excitation and emission wavelengths of 650 nm and 665 nm. […]

XBP1 mRNA splicing = experiment: XBP1 splicing in ER-stressed INS-1 cells; assay type: cell-based, rat; conditions: brefeldin A (BFA) or thapsigargin (Tg)
Description: RNA Isolation, Quantitative Real-Time PCR, and Primers
INS-1 or isogenic IRE1α-overexpressing INS-1 cells were plated onto Poly-D-Lysine coated tissue culture plate and grown for 48 hrs. Inhibitors or DMSO were added to the media and incubated for 1 hour at 37° C. with 5% CO2 prior to addition of ER stress agents or Dox as indicated. RNA was isolated from whole cells using either QIAGEN RNeasy Mini kits or Trizol (Invitrogen) and reverse transcribed as above to obtain total cDNA. Then, XBP-1 primers were used to amplify an XBP-1 amplicon spanning the 26 nt intron from the cDNA samples in a regular 3-step PCR. Thermal cycles were: 5 min at 95° C., 30 cycles of 30 s at 95° C., 30 s at 60° C., and 1 min at 72° C., followed by 72° C. for 15 min, and hold at 4° C. Primers used for XBP-1 mRNA splicing were as follows: sense primer XBP1.3 S (5′ […]-3′ (SEQ ID NO:2)) and antisense primer XBP1.2AS (5′-[…]-3′ (SEQ ID NO:3)). PCR fragments were then digested by PstI, resolved on 3% agarose gels, stained with EtBr and quantified by densitometry using ImageJ (NIH). For standard mRNA detection, generally […] total RNA was reverse transcribed using the QuantiTect Reverse Transcription Kit (QIAGEN). For qPCR, we used SYBR green (QIAGEN) and StepOnePlus Real-Time PCR System (Applied Biosystems). Thermal cycles were: 5 min at 95° C., 40 cycles of 15 sec at 95° C., 30 sec at 60° C. […]

mouse splenocytes = experiment: LPS-induced differentiation of mouse splenocytes into plasma cells (flow cytometry, IgM ELISA); assay type: cell-based; conditions: 1 μg/mL LPS, three days, 20 μM-1.25 μM
Description: Therefore, we sought to compare the sensitivity of this process to both KIRAs and PAIRs. To this end, we assessed how KIRA8, KIRA9, and PAIR1 affected the differentiation of lipopolysaccharide (LPS)-treated mouse splenocytes into antibody-secreting plasma cells. Total live number of CD19+ B-cells were assessed and plasma cells were quantified on the basis of B220 downregulation and CD138 expression by flow cytometry (FIGS. 6A-6C, FIG. 24). Concomitantly, secreted IgM was measured in the cell culture supernatants by ELISA (FIG. 6C).
Splenocyte Isolation and Differentiation
Red blood cells were lysed with ammonium chloride potassium buffer. Splenocytes were plated at 2.5×10^5 cells/well in a 96-well round bottom plate in complete media. The splenocytes were treated with or without 1 μg/ml LPS 026:b6 (Sigma). […] The splenocytes were incubated for three days in a 37° C., 5% CO2 humidified chamber before collection and staining for flow cytometry.
Cells from the plasma cell assay were collected in a 96-well plate and washed with PBS followed by staining with LIVE/DEAD Fixable Near-IR Dead Cell Stain kit (Invitrogen). Reagent was reconstituted as per manufacturer's instructions, diluted 1:1000 in PBS, and cells were stained in 100 μL on ice for 20 minutes. The cells were then washed with FACS buffer, PBS (Corning), 2 mM EDTA and 2% heat inactivated fetal bovine serum (Omega Scientific). The cells were then stained with 50 μL antibody cocktail consisting of anti-CD19 (BioLegend), anti-CD45R (BD Pharmingen), and anti-CD138 (BioLegend) in FACS buffer on ice for 15 minutes. Cells were resuspended in FACS buffer and combined with an equal volume of 4% paraformaldehyde with 5000 Countbright Absolute Counting Beads (Thermofisher). Stained cells were analyzed on a Fortessa (Becton Dickinson). Data analysis was performed using FlowJo (v10) software (Treestar Inc.).
Media supernatants from the in vitro plasma cell differentiation assay were measured for secreted IgM by ELISA. […] Wash buffer (PBS with 0.05% Tween-20 (v/v)) was used for all washing steps and blocked with PBS-BB (PBS without Ca^2+/Mg^2+, 1% BSA (w/v), 0.05% Tween-20 (v/v)). Supernatants from LPS stimulated samples were diluted (1:100) and media only samples were diluted (1:10) in PBS-BB. […] ELISA plates were developed with TMB (Sigma) and stopped with 1N sulfuric acid. Absorbance was measured at 450 nm using spectrophotometer (Spectramax M5, Molecular Devices). Sample IgM concentration values were calculated with SoftMaxPro software.

IRE1α* [2] = biological target: T1, IRE1α*; experiment: In vitro kinase activity assay (IRE1α kinase inhibition); assay type: biochemical
Description: A construct containing the cytosolic kinase and RNase domains of human IRE1α (residues 547-977, IRE1α*) was expressed in SF9 insect cells by using the Bac-to-Bac baculovirus expression system (Invitrogen) with a His6 tag at the N-terminus and purified with a nickel-nitriloacetic acid (Qiagen) column. To generate dP-IRE1α*, we removed basal phosphorylation sites by incubating IRE1α* with λ-PPase (New England Biolabs) at a molar ratio of 5:1 (IRE1α*: λ-PPase) in 50 mM HEPES pH 7.5, 100 mM NaCl, 1 mM MnCl2, 2 mM dithiothreitol (DTT) and 0.01% Brij 35 detergent (v/v) overnight at 4° C. Dephosphorylation was verified through western blotting using a universal phospho-protein detection agent (biotin-pIMAGO (Tymora Analytical Operations, Cat. No.: FL800) and imaged using a streptavidin-linked fluorophore.
In Vitro Kinase Activity Assay
Inhibitors (initial concentration of 10 or 60 μM, three-fold serial dilutions) were incubated with IRE1α* in cleavage buffer (20 mM HEPES, 0.05% Triton X-100 (v/v), 50 mM KCl, 1 mM MgCl2, 1 mM DTT, pH 7.5) for 30 min, followed by incubation with 10 μCi [γ^32P] ATP (3,000 Ci mmol^−1, PerkinElmer) at 23° C. for 3 hours. Samples were then spotted onto glass fiber paper (Easytab-C Glass Fiber Filter Paper, Perkin Elmer) and washed in twice with 0.5% phosphoric acid and autoradiographed using a GE Typhoon FLA 9000 Imager. Blots were quantitated using ImageQuant software. The percent inhibition was quantified by setting the background (no kinase well) as 0 and standardizing to IRE1α* without compound treatment (IRE1α*+DMSO). Dose-response curves were fit using “one-site fit log IC50” parameter using GraphPad Prism analysis software.
Compound Characterization (IC50 IRE1α Kinase Inhibition)

IRE1α* [3] = biological target: T1, IRE1α*; experiment: In vitro RNase activity assay, XBP1-mini substrate cleavage, inhibitor titrations; assay type: biochemical; conditions: relative to apo IRE1α*
Description: In Vitro RNase Activity Assay Inhibitor Titrations
50 nM IRE1α* was incubated with inhibitor (initial concentration of 10 or 60 μM, three-fold serial dilutions) or DMSO for 30 min in assay buffer (20 mM Tris, 50 mM NaCl, 1 mM MgCl2, 2 mM DTT, 0.05% Triton X-100 (v/v), pH 7.5). Assays were initiated by adding 10 μL of XBP1-mini substrate (5′-Alex647-CAUGUCCGCAGCGCAUG-IowaBlack-FQ-3′ (SEQ ID NO: 1); IDT) to the wells at a final concentration of 200 nM and a final well volume of 30 μL. Fluorescence was detected on a Perkin Elmer Envision Microplate Reader at excitation and emission wavelengths of 650 nm and 665 nm. Dose-response curves were fit using “one-site fit log IC50” parameter using GraphPad Prism analysis software.

T1 sequence (O75460 547-977): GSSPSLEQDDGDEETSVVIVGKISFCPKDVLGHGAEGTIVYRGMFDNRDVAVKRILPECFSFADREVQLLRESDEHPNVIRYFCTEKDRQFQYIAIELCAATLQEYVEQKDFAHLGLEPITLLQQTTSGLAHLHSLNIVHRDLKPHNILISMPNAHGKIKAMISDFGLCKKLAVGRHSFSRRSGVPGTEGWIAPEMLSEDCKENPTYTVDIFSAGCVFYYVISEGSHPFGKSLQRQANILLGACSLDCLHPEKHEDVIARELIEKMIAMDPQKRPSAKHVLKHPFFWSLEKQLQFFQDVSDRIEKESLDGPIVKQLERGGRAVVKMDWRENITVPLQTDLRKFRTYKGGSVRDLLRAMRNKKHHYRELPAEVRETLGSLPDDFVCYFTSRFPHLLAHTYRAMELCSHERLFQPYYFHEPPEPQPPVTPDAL
T2 sequence (O75460 547-977): as above

| Structure (SMILES) | dimerization affinity of IRE1α* / formation of RNase active dimers (IRE1α* [1]) | formation of the RNase active dimer of dpIRE1α* (dpIRE1α*) | spliced XBP1 (XBP1 mRNA splicing) | IgM secretion (mouse splenocytes) | plasma cell (CD138+) differentiation (mouse splenocytes) | kinase activity of IRE1α* / ATP-binding site occupancy (in words) (IRE1α* [2]) | RNase activity of IRE1α* (in words) (IRE1α* [3]) |
| --- | --- | --- | --- | --- | --- | --- | --- |
| NC(=O)Nc1cc(-c2cccc(F)c2)sc1C(=O)N[C@H]1CCCNC1 [AZD7762] | promotes the formation of the RNase active dimer of IRE1α* | promotes the formation of the RNase active dimer of dpIRE1α* | – | – | – | – | – |
| Cc1ccc2c(NS(=O)(=O)c3ccccc3Cl)cccc2c1Oc1ncccc1-c1ccnc(N[C@H]2CCCNC2)n1 [KIRA8, reference compound] | unable to form RNase active dimers at any concentration tested | – | completely suppresses XBP1 splicing; also recorded: almost completely suppressed | reductions in both plasma cell differentiation and IgM secretion in a dose-dependent manner | dose-dependently inhibits B-cell differentiation into plasma cells; also recorded: reductions in both plasma cell differentiation and IgM secretion in a dose-dependent manner | – | – |
| N[C@H]1CC[C@H](Nc2nccc(-c3cccnc3Oc3ccc(NS(=O)(=O)CCC(F)(F)F)c(F)c3)n2)CC1 [compound 3, N-(4-(3-(2-((1r,4r)-4-aminocyclohexylamino)pyrimidin-4-yl)pyridin-2-yloxy)-2-fluorophenyl)-3,3,3-trifluoropropane-1-sulfonamide] | completely suppressed the formation of RNase active dimers | – | – | – | – | dose-dependently inhibited | dose-dependently inhibited |
